Assay results: patent US20250154127A1, “BICYCLIC HETEROARYL COMPOUNDS AND USES THEREOF” (ETERN BIOPHARMA (SHANGHAI) CO., LTD., priority 2022, published 2025)

Assays:
[1] = molecular target: TEAD1(210-426) binding to YAP(50-100) (Homo sapiens, UniProt P28347); test: TR-FRET Assay for TEAD1(210-426) Binding to YAP(50-100); conditions: His-TEAD 10 nM, YAP-Biotin peptide 50 nM
Procedure: Compounds were performed 3 fold serial dilution, 12 data points, added to 384 well white plate. The final DMSO concentration is 1%, duplicate for each concentration. Then His-TEAD protein was added to a final concentration of 10 nM, and allowed to preincubate for 30 minutes at room temperature. Assay buffer was added as background control.
YAP-Biotin peptide was added to a final concentration of 50 nM, mixed well, incubate 10 minutes at room temperature. The YAP(50-100) peptide sequence used here is named SEQ ID NO: 2
The Europium-labeled anti-6×His antibody and APC labeled streptavidin were diluted according to the instructions, this detection solution was mixed 1:1 with reaction solution, incubated 1 hour at room temperature.
TR-FRET measurements were made on an Envision (Perkin Elmer), using an excitation wavelength of 320 nm and emissions read at 620 nm and 665 nm. The ratio of the 665 nm to the 620 nm multiply 10000 provides a normalized TR-FRET signal that represents the extent of binding.
Half inhibition concentration IC50 value was calculated by XLfit software.

MSTO-211H cells = test: Proliferation Assay (CellTiter-Glo Luminescent Cell Viability Assay); type: cell-based; conditions: Homo sapiens, 96 hours treatment
Procedure: Example 5: Proliferation Assay
The effect of compound on YAP driven cancer cells proliferation was assessed in MSTO-211H (ATCC, CRL-2081TM) or NCI-H2052 (ATCC, CRL-5915TM) cells using CellTiter-Glo Luminescent Cell Viability Assay (Promega, G7570).
Briefly, individual cell lines were seeded in 96-well cell culture plate at the density of 1,500 cells per well and cultured in RPMII1640 (Gibco-A10491-01)+10% FBS (Gibco-10099-141C)+1% Penicillin-Streptomycin (5,000 U/mL, Gibco-15070-063) overnight at 37° C. with 5% CO2 before adding the compounds.
Following incubation, serial dilutions of compounds dissolved in DMSO were added to each well (3-fold dilution with 9 concentration points). The final concentration of DMSO present in this assay is below 0.5% and make duplication for each compound treated well.
Following 96 hours treatment, compound mediated cell growth inhibition was measured using CellTiter-Go Luminescent Cell Viability Assay (Promega, G7570). […] CellTiter-Glo in each assay well, mix and incubate at room temperature for 10 min. Read signal using EnVision® Multilabel Plate Reader (Perkin Elmer).
For data analysis, cell proliferation inhibition was calculated using the following formula:
Inhibition %=(1−(Compound treated well CTG signal/DMSO well CTG signal))*100.
IC50 values were calculated using GraphPad Prism software using a four-parameter fit model.

TEAD1(210-426) binding to YAP(50-100), sequence (P28347 209-426): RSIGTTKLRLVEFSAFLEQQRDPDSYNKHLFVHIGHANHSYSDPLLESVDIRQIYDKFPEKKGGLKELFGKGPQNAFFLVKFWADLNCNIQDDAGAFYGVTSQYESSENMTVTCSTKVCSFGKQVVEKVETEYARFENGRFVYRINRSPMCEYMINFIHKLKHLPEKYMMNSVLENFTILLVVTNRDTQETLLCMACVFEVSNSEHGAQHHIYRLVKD

IC50 [1] | SMILES | IC50 (MSTO-211H cells)
≤ 100 nM | COCCOc1nccc(Cn2ccc(-n3nc(-c4ccc(C(F)(F)F)cc4)c4c(F)cccc43)cc2=O)n1 [Compound 137, 4-(4-fluoro-3-(4-(trifluoromethyl)phenyl)-1H-indazol-1-yl)-1-((2-(2-methoxyethoxy)pyrimidin-4-yl)methyl)pyridin-2(1H)-one] | ≤ 1000 nM
≤ 100 nM | CCC(c1ccccn1)n1ccc(-c2nn(-c3ccc(C(F)(F)F)cc3)c3cccnc23)cc1=O (stereo not drawn) [Compound 7, 1-(1-(pyridin-2-yl)propyl)-4-(1-(4-(trifluoromethyl)phenyl)-1H-pyrazolo[4,3-b]pyridin-3-yl)pyridin-2(1H)-one] | 1000 to 10000 nM
≤ 100 nM | O=c1cc(-c2nn(-c3ccc(OC(F)(F)F)cc3)c3c(F)cccc23)ccn1Cc1ccnc(NCCO)n1 [Compound 151, 4-(7-fluoro-1-(4-(trifluoromethoxy)phenyl)-1H-indazol-3-yl)-1-((2-((2-hydroxyethyl)amino)pyrimidin-4-yl)methyl)pyridin-2(1H)-one] | ≤ 1000 nM
≤ 100 nM | COCCOc1nccc(Cn2ccc(-c3nn(-c4ccc(C(F)(F)F)cc4)c4ccccc34)cc2=O)n1 [Compound 82, 1-((2-(2-methoxyethoxy)pyrimidin-4-yl)methyl)-4-(1-(4-(trifluoromethyl)phenyl)-1H-indazol-3-yl)pyridin-2(1H)-one] | ≤ 1000 nM
≤ 100 nM | C[C@@H](c1ccccn1)n1ccc(-n2nc(-c3ccc(C(F)(F)F)cc3)c3ncccc32)cc1=O [Compound 9, (S)-1-(1-(pyridin-2-yl)ethyl)-4-(3-(4-(trifluoromethyl)phenyl)-1H-pyrazolo[4,3-b]pyridin-1-yl)pyridin-2(1H)-one] | ≤ 1000 nM
≤ 100 nM | O=c1cc(-c2nn(-c3ccc(C(F)(F)F)cc3)c3ccccc23)ccn1Cc1nccc(N2CC[C@H](O)C2)n1 [Compound 55, (S)-1-((4-(3-hydroxypyrrolidin-1-yl)pyrimidin-2-yl)methyl)-4-(1-(4-(trifluoromethyl)phenyl)-1H-indazol-3-yl)pyridin-2(1H)-one] | ≤ 1000 nM
≤ 100 nM | O=c1cc(-c2nn(-c3ccc(C(F)(F)F)cc3)c3nccnc23)ccn1Cc1ccnc(NCCO)n1 [Compound 102, 1-((2-((2-hydroxyethyl)amino)pyrimidin-4-yl)methyl)-4-(1-(4-(trifluoromethyl)phenyl)-1H-pyrazolo[3,4-b]pyrazin-3-yl)pyridin-2(1H)-one] | ≤ 1000 nM
≤ 100 nM | COCCNc1ccnc(Cn2ccc(-c3nn(-c4ccc(C(F)(F)F)cc4)c4ccccc34)cc2=O)n1 [Compound 78, 1-((4-((2-methoxyethyl)amino)pyrimidin-2-yl)methyl)-4-(1-(4-(trifluoromethyl)phenyl)-1H-indazol-3-yl)pyridin-2(1H)-one] | ≤ 1000 nM
≤ 100 nM | O=c1cc(-c2nn(-c3ccc(C(F)(F)F)cc3)c3ncccc23)ccn1Cc1cccnc1 [Compound 88, 1-(pyridin-3-ylmethyl)-4-(1-(4-(trifluoromethyl)phenyl)-1H-pyrazolo[3,4-b]pyridin-3-yl)pyridin-2(1H)-one] | ≤ 1000 nM
≤ 100 nM | O=c1cc(-c2nn(-c3ccc(C(F)(F)F)cc3)c3ncccc23)ccn1Cc1ccnc(NC2CC2)n1 [Compound 44, 1-((2-(cyclopropylamino)pyrimidin-4-yl)methyl)-4-(1-(4-(trifluoromethyl)phenyl)-1H-pyrazolo[3,4-b]pyridin-3-yl)pyridin-2(1H)-one] | ≤ 1000 nM
≤ 100 nM | O=c1cc(-c2nn(-c3ccc(C(F)(F)F)cc3)c3ccccc23)ccn1Cc1ncccn1 [Compound 15, 1-(pyrimidin-2-ylmethyl)-4-(1-(4-(trifluoromethyl)phenyl)-1H-indazol-3-yl)pyridin-2(1H)-one] | ≤ 1000 nM
≤ 100 nM | COCCNc1nccc(Cn2ccc(-c3nn(-c4ccc(OC(F)(F)F)cc4)c4c(F)cccc34)cc2=O)n1 [Compound 150, 4-(7-fluoro-1-(4-(trifluoromethoxy)phenyl)-1H-indazol-3-yl)-1-((2-((2-methoxyethyl)amino)pyrimidin-4-yl)methyl)pyridin-2(1H)-one] | ≤ 1000 nM
≤ 100 nM | CN(CCO)c1ccnc(Cn2ccc(-c3nn(-c4ccc(C(F)(F)F)cc4)c4ncccc34)cc2=O)n1 [Compound 75, 1-((4-((2-hydroxyethyl)(methyl)amino)pyrimidin-2-yl)methyl)-4-(1-(4-(trifluoromethyl)phenyl)-1H-pyrazolo[3,4-b]pyridin-3-yl)pyridin-2(1H)-one] | ≤ 1000 nM
≤ 100 nM | Cn1ccc(Cn2ccc(-c3nn(-c4ccc(C(F)(F)F)cc4)c4ncccc34)cc2=O)n1 [Compound 111, 1-((1-methyl-1H-pyrazol-3-yl)methyl)-4-(1-(4-(trifluoromethyl)phenyl)-1H-pyrazolo[3,4-b]pyridin-3-yl)pyridin-2(1H)-one] | ≤ 1000 nM
≤ 100 nM | O=c1cc(-c2nn(-c3ccc(C(F)(F)F)cc3)c3ncccc23)ccn1Cc1ccnc(OCCO)n1 [Compound 126, 1-((2-(2-hydroxyethoxy)pyrimidin-4-yl)methyl)-4-(1-(4-(trifluoromethyl)phenyl)-1H-pyrazolo[3,4-b]pyridin-3-yl)pyridin-2(1H)-one] | ≤ 1000 nM
> 1000 nM | C[C@@H](c1ccccn1)n1ccc(-c2nn(-c3ccc(C(F)(F)F)cc3)c3cc(C#N)ccc23)cc1=O [Compound 31, (S)-3-(2-oxo-1-(1-(pyridin-2-yl)ethyl)-1,2-dihydropyridin-4-yl)-1-(4-(trifluoromethyl)phenyl)-1H-indazole-6-carbonitrile] | ≤ 1000 nM
≤ 100 nM | COCCN(C)c1nccc(Cn2ccc(-c3nn(-c4ccc(C(F)(F)F)cc4)c4c(F)cccc34)cc2=O)n1 [Compound 147, 4-(7-fluoro-1-(4-(trifluoromethyl)phenyl)-1H-indazol-3-yl)-1-((2-((2-methoxyethyl)(methyl)amino)pyrimidin-4-yl)methyl)pyridin-2(1H)-one] | ≤ 1000 nM
≤ 100 nM | O=c1cc(-n2nc(-c3ccc(C(F)(F)F)cc3)c3nccnc32)ccn1Cc1ccnc(NCCO)n1 [Compound 50, 1-((2-((2-hydroxyethyl)amino)pyrimidin-4-yl)methyl)-4-(3-(4-(trifluoromethyl)phenyl)-1H-pyrazolo[3,4-b]pyrazin-1-yl)pyridin-2(1H)-one] | ≤ 1000 nM
≤ 100 nM | O=c1cc(-c2nn(-c3ccc(C(F)(F)F)cc3)c3ccccc23)ccn1Cc1nccc(N2CC(O)C2)n1 [Compound 85, 1-((4-(3-hydroxyazetidin-1-yl)pyrimidin-2-yl)methyl)-4-(1-(4-(trifluoromethyl)phenyl)-1H-indazol-3-yl)pyridin-2(1H)-one] | ≤ 1000 nM
≤ 100 nM | COCCOc1nccc(Cn2ccc(-c3nn(-c4ccc(C(F)(F)F)cc4)c4c(F)cccc34)cc2=O)n1 [Compound 134, 4-(7-fluoro-1-(4-(trifluoromethyl)phenyl)-1H-indazol-3-yl)-1-((2-(2-methoxyethoxy)pyrimidin-4-yl)methyl)pyridin-2(1H)-one] | ≤ 1000 nM
≤ 100 nM | O=c1cc(-c2nn(-c3ccc(C(F)(F)F)cc3)c3ncccc23)ccn1Cc1ncccn1 [Compound 115, 1-(pyrimidin-2-ylmethyl)-4-(1-(4-(trifluoromethyl)phenyl)-1H-pyrazolo[3,4-b]pyridin-3-yl)pyridin-2(1H)-one] | ≤ 1000 nM
100 to 1000 nM | COc1ccnc(Cn2ccc(-c3nn(-c4ccc(C(F)(F)F)cc4)c4nccnc34)cc2=O)n1 [Compound 105, 1-((4-methoxypyrimidin-2-yl)methyl)-4-(1-(4-(trifluoromethyl)phenyl)-1H-pyrazolo[3,4-b]pyrazin-3-yl)pyridin-2(1H)-one] | ≤ 1000 nM
≤ 100 nM | COCCOc1nccc(Cn2ccc(-c3nn(-c4ccc(C(F)(F)F)cc4)c4cccc(F)c34)cc2=O)n1 [Compound 154, 4-(4-fluoro-1-(4-(trifluoromethyl)phenyl)-1H-indazol-3-yl)-1-((2-(2-methoxyethoxy)pyrimidin-4-yl)methyl)pyridin-2(1H)-one] | ≤ 1000 nM
≤ 100 nM | Nc1cncc(Cn2ccc(-c3nn(-c4ccc(C(F)(F)F)cc4)c4ccccc34)cc2=O)n1 [Compound 65, 1-((6-aminopyrazin-2-yl)methyl)-4-(1-(4-(trifluoromethyl)phenyl)-1H-indazol-3-yl)pyridin-2(1H)-one] | ≤ 1000 nM
